Data: US9113629B2, “4-amino-6-(4-substituted-phenyl)-picolinates and 6-amino-2-(4-substituted-phenyl)-pyrimidine-4-carboxylates and their use as herbicides” (DOW AGROSCIENCES LLC, priority 2013, dated 2015)

Test system: TRZSS: wheat, including spring and winter (Triticum aestivum)
Assay: Post-emergent Test III, herbicidal activity in wheat and barley
Assay type: in vivo
Conditions: Table 9; dose for 20 percent growth reduction, probit analysis; 21 d
Description: (§1) Post-emergent Test III. Seeds of the desired test plant species were planted in Sun Gro MetroMix® 306 planting mixture, which typically has a pH of 6.0 to 6.8 and an organic matter content of about 30 percent, in plastic pots with a surface area of 103.2 square centimeters (cm^2). When required to ensure good germination and healthy plants, a fungicide treatment and/or other chemical or physical treatment was applied. The plants were grown for 7-36 days (d) in a greenhouse with an approximate 14 hour (h) photoperiod which was maintained at about 18° C. during the day and 17° C. during the night. Nutrients and water were added on a regular basis and supplemental lighting was provided with overhead metal halide 1000-Watt lamps as necessary. The plants were employed for testing when they reached the second or third true leaf stage.
(§2) A weighed amount, determined by the highest rate to be tested, of each test compound was placed in a 25 mL glass vial and was dissolved in 4 mL of a 97:3 v/v mixture of acetone and DMSO to obtain concentrated stock solutions. […] The concentrated stock solutions obtained were diluted with 20 mL of an aqueous mixture containing acetone, water, isopropyl alcohol, DMSO, Agri-Dex crop oil concentrate, and X-77 surfactant in a 48:39:10:1.5:1.5:0.02 v/v ratio to obtain spray solutions containing the highest application rates. Additional application rates were obtained by serial dilution of 12 mL of the high rate solution into a solution containing 2 mL of 97:3 v/v mixture of acetone and DMSO and 10 mL of an aqueous mixture containing acetone, water, isopropyl alcohol, DMSO, Agri-Dex crop oil concentrate, and X-77 surfactant in a 48:39:10:1.5:1.5:0.02 v/v ratio to obtain ½×, ¼×, ⅛× and 1/16× rates of the high rate. Compound requirements are based upon a 12 mL application volume at a rate of 187 liters per hectare (L/ha). Formulated compounds were applied to the plant material with an overhead Mandel track sprayer equipped with 8002E nozzles calibrated to deliver 187 L/ha over an application area of 0.503 square meters at a spray height of 18 inches (43 cm) above the average plant canopy height. Control plants were sprayed in the same manner with the solvent blank.
(§3) The treated plants and control plants were placed in a greenhouse as described above and watered by subirrigation to prevent wash-off of the test compounds. After 21 d, the condition of the test plants as compared with that of the untreated plants was determined visually and scored on a scale of 0 to 100 percent where 0 corresponds to no injury and 100 corresponds to complete kill.
(§4) By applying the well-accepted probit analysis as described by J. Berkson in Journal of the American Statistical Society, 48, 565 (1953) and by D. Finney in “Probit Analysis” Cambridge University Press (1952), herbicidal injury of a specific compound at various rates can be used to calculate GR20, GR50, GR80 and GR90 values, which are defined as growth reduction factors that correspond to the effective dose of herbicide required to provide plant growth reduction (GR) of 20 percent, 50 percent, 80 percent and 90 percent, respectively. Probit analysis was applied to data collected from multiple dose rates of individual compounds utilizing the procedures explained in the following examples. The analysis of those dose rates is captured in the following tables.

| SMILES | GR20 TRZSS |
| --- | --- |
| COC(=O)c1nc(-c2cc(F)c(Br)cc2F)c(F)c(N)c1Cl [Compound 51, methyl 4-amino-6-(4-bromo-2,5-difluorophenyl)-3-chloro-5-fluoropicolinate] | 1 g ai/ha |

Same assay, conditions: Triticum aestivum, post-emergence, 504 h; Table 9; 35 g ai/ha; post-emergent; 21 d; read-out: Visual Growth Reduction (%) 21 Days After Application TRZSS

| SMILES | pest or weed control at 35 g/ha |
| --- | --- |
| COC(=O)c1nc(-c2cc(F)c(Br)cc2F)c(F)c(N)c1Cl [Compound 51, methyl 4-amino-6-(4-bromo-2,5-difluorophenyl)-3-chloro-5-fluoropicolinate] | 85 to 94% |

Same assay, conditions: Triticum aestivum, post-emergence, 504 h; Table 9; 70 g ai/ha; post-emergent; 21 d; read-out: Visual Growth Reduction (%) 21 Days After Application TRZSS

| SMILES | pest or weed control at 70 g/ha |
| --- | --- |
| COC(=O)c1nc(-c2cc(F)c(Br)cc2F)c(F)c(N)c1Cl [Compound 51, methyl 4-amino-6-(4-bromo-2,5-difluorophenyl)-3-chloro-5-fluoropicolinate] | 95 to 100% |

Test system: LOLSS: ryegrass including, Italian ryegrass (Lolium multiflorum), rigid ryegrass (Lolium rigidum), annual ryegrass (Lolium multiflorum subsp. Gaudini)
Assay: as above
Assay type: in vivo
Conditions: Table 9; dose for 50 percent growth reduction, probit analysis; 21 d
Description: as §1, §2, §3, §4

| SMILES | GR50 LOLSS |
| --- | --- |
| COC(=O)c1nc(-c2cc(F)c(Br)cc2F)c(F)c(N)c1Cl [Compound 51, methyl 4-amino-6-(4-bromo-2,5-difluorophenyl)-3-chloro-5-fluoropicolinate] | 3 g ai/ha |

Same assay, conditions: Table 9; dose for 80 percent growth reduction, probit analysis; 21 d

| SMILES | GR80 LOLSS |
| --- | --- |
| COC(=O)c1nc(-c2cc(F)c(Br)cc2F)c(F)c(N)c1Cl [Compound 51, methyl 4-amino-6-(4-bromo-2,5-difluorophenyl)-3-chloro-5-fluoropicolinate] | 61 g ai/ha |

Test system: APESV: bentgrass (Apera spica-venti)
Assay: as above
Assay type: in vivo
Conditions: Apera spica-venti, post-emergence, 504 h; Table 9; 35 g ai/ha; post-emergent; 21 d; read-out: Visual Growth Reduction (%) 21 Days After Application APESV
Description: as §1, §2, §3, §4

| SMILES | pest or weed control at 35 g/ha |
| --- | --- |
| COC(=O)c1nc(-c2cc(F)c(Br)cc2F)c(F)c(N)c1Cl [Compound 51, methyl 4-amino-6-(4-bromo-2,5-difluorophenyl)-3-chloro-5-fluoropicolinate] | 85 to 94% |

Same assay, conditions: Apera spica-venti, post-emergence, 504 h; Table 9; 70 g ai/ha; post-emergent; 21 d; read-out: Visual Growth Reduction (%) 21 Days After Application APESV

| SMILES | pest or weed control at 70 g/ha |
| --- | --- |
| COC(=O)c1nc(-c2cc(F)c(Br)cc2F)c(F)c(N)c1Cl [Compound 51, methyl 4-amino-6-(4-bromo-2,5-difluorophenyl)-3-chloro-5-fluoropicolinate] | 95 to 100% |

Same assay, conditions: Table 9; dose for 50 percent growth reduction, probit analysis; 21 d

| SMILES | GR50 APESV |
| --- | --- |
| COC(=O)c1nc(-c2cc(F)c(Br)cc2F)c(F)c(N)c1Cl [Compound 51, methyl 4-amino-6-(4-bromo-2,5-difluorophenyl)-3-chloro-5-fluoropicolinate] | 3 g ai/ha |

Same assay, conditions: Table 9; dose for 80 percent growth reduction, probit analysis; 21 d

| SMILES | GR80 APESV |
| --- | --- |
| COC(=O)c1nc(-c2cc(F)c(Br)cc2F)c(F)c(N)c1Cl [Compound 51, methyl 4-amino-6-(4-bromo-2,5-difluorophenyl)-3-chloro-5-fluoropicolinate] | 11 g ai/ha |

Test system: HORSS: barley, including spring and winter (Hordeum vulgare)
Assay: as above
Assay type: in vivo
Conditions: Hordeum vulgare, post-emergence, 504 h; Table 9; 35 g ai/ha; post-emergent; 21 d; read-out: Visual Growth Reduction (%) 21 Days After Application HORSS
Description: as §1, §2, §3, §4

| SMILES | pest or weed control at 35 g/ha |
| --- | --- |
| COC(=O)c1nc(-c2cc(F)c(Br)cc2F)c(F)c(N)c1Cl [Compound 51, methyl 4-amino-6-(4-bromo-2,5-difluorophenyl)-3-chloro-5-fluoropicolinate] | 85 to 94% |

Same assay, conditions: Hordeum vulgare, post-emergence, 504 h; Table 9; 70 g ai/ha; post-emergent; 21 d; read-out: Visual Growth Reduction (%) 21 Days After Application HORSS

| SMILES | pest or weed control at 70 g/ha |
| --- | --- |
| COC(=O)c1nc(-c2cc(F)c(Br)cc2F)c(F)c(N)c1Cl [Compound 51, methyl 4-amino-6-(4-bromo-2,5-difluorophenyl)-3-chloro-5-fluoropicolinate] | 95 to 100% |

Same assay, conditions: Table 9; dose for 20 percent growth reduction, probit analysis; 21 d

| SMILES | GR20 HORSS |
| --- | --- |
| COC(=O)c1nc(-c2cc(F)c(Br)cc2F)c(F)c(N)c1Cl [Compound 51, methyl 4-amino-6-(4-bromo-2,5-difluorophenyl)-3-chloro-5-fluoropicolinate] | 1 g ai/ha |

Test system: KCHSC: kochia (Kochia scoparia)
Assay: as above
Assay type: in vivo
Conditions: Bassia scoparia, post-emergence, 504 h; Table 9; 35 g ai/ha; post-emergent; 21 d; read-out: Visual Growth Reduction (%) 21 Days After Application KCHSC
Description: as §1, §2, §3, §4

| SMILES | pest or weed control at 35 g/ha |
| --- | --- |
| COC(=O)c1nc(-c2cc(F)c(Br)cc2F)c(F)c(N)c1Cl [Compound 51, methyl 4-amino-6-(4-bromo-2,5-difluorophenyl)-3-chloro-5-fluoropicolinate] | 85 to 94% |

Same assay, conditions: Bassia scoparia, post-emergence, 504 h; Table 9; 70 g ai/ha; post-emergent; 21 d; read-out: Visual Growth Reduction (%) 21 Days After Application KCHSC

| SMILES | pest or weed control at 70 g/ha |
| --- | --- |
| COC(=O)c1nc(-c2cc(F)c(Br)cc2F)c(F)c(N)c1Cl [Compound 51, methyl 4-amino-6-(4-bromo-2,5-difluorophenyl)-3-chloro-5-fluoropicolinate] | 95 to 100% |

Same assay, conditions: Table 9; dose for 50 percent growth reduction, probit analysis; 21 d

| SMILES | GR50 KCHSC |
| --- | --- |
| COC(=O)c1nc(-c2cc(F)c(Br)cc2F)c(F)c(N)c1Cl [Compound 51, methyl 4-amino-6-(4-bromo-2,5-difluorophenyl)-3-chloro-5-fluoropicolinate] | 4 g ai/ha |

Same assay, conditions: Table 9; dose for 80 percent growth reduction, probit analysis; 21 d

| SMILES | GR80 KCHSC |
| --- | --- |
| COC(=O)c1nc(-c2cc(F)c(Br)cc2F)c(F)c(N)c1Cl [Compound 51, methyl 4-amino-6-(4-bromo-2,5-difluorophenyl)-3-chloro-5-fluoropicolinate] | 14 g ai/ha |

Test system: not listed separately
Assay: as above
Assay type: in vivo, Lolium multiflorum, Lolium rigidum
Conditions: Lolium multiflorum, post-emergence, 504 h; Table 9; 35 g ai/ha; post-emergent; 21 d; read-out: Visual Growth Reduction (%) 21 Days After Application LOLSS
Description: as §1, §2, §3, §4

| SMILES | pest or weed control at 35 g/ha |
| --- | --- |
| COC(=O)c1nc(-c2cc(F)c(Br)cc2F)c(F)c(N)c1Cl [Compound 51, methyl 4-amino-6-(4-bromo-2,5-difluorophenyl)-3-chloro-5-fluoropicolinate] | 75 to 84% |

Same assay, conditions: Lolium multiflorum, post-emergence, 504 h; Table 9; 70 g ai/ha; post-emergent; 21 d; read-out: Visual Growth Reduction (%) 21 Days After Application LOLSS

| SMILES | pest or weed control at 70 g/ha |
| --- | --- |
| COC(=O)c1nc(-c2cc(F)c(Br)cc2F)c(F)c(N)c1Cl [Compound 51, methyl 4-amino-6-(4-bromo-2,5-difluorophenyl)-3-chloro-5-fluoropicolinate] | 75 to 84% |

Test system: SETVI: green foxtail (Setaria viridis)
Assay: as above
Assay type: in vivo
Conditions: Setaria viridis, post-emergence, 504 h; Table 9; 35 g ai/ha; post-emergent; 21 d; read-out: Visual Growth Reduction (%) 21 Days After Application SETVI
Description: as §1, §2, §3, §4

| SMILES | pest or weed control at 35 g/ha |
| --- | --- |
| COC(=O)c1nc(-c2cc(F)c(Br)cc2F)c(F)c(N)c1Cl [Compound 51, methyl 4-amino-6-(4-bromo-2,5-difluorophenyl)-3-chloro-5-fluoropicolinate] | 75 to 84% |

Same assay, conditions: Setaria viridis, post-emergence, 504 h; Table 9; 70 g ai/ha; post-emergent; 21 d; read-out: Visual Growth Reduction (%) 21 Days After Application SETVI

| SMILES | pest or weed control at 70 g/ha |
| --- | --- |
| COC(=O)c1nc(-c2cc(F)c(Br)cc2F)c(F)c(N)c1Cl [Compound 51, methyl 4-amino-6-(4-bromo-2,5-difluorophenyl)-3-chloro-5-fluoropicolinate] | 85 to 94% |

Same assay, conditions: Table 9; dose for 50 percent growth reduction, probit analysis; 21 d

| SMILES | GR50 SETVI |
| --- | --- |
| COC(=O)c1nc(-c2cc(F)c(Br)cc2F)c(F)c(N)c1Cl [Compound 51, methyl 4-amino-6-(4-bromo-2,5-difluorophenyl)-3-chloro-5-fluoropicolinate] | 24 g ai/ha |

Same assay, conditions: Table 9; dose for 80 percent growth reduction, probit analysis; 21 d

| SMILES | GR80 SETVI |
| --- | --- |
| COC(=O)c1nc(-c2cc(F)c(Br)cc2F)c(F)c(N)c1Cl [Compound 51, methyl 4-amino-6-(4-bromo-2,5-difluorophenyl)-3-chloro-5-fluoropicolinate] | 49 g ai/ha |
